Results as given in PMC2994747, “Molecular Characterization of c-Abl/c-Src Kinase Inhibitors Targeted against Murine Tumour Progenitor Cells that Express Stem Cell Markers” (PLoS ONE, 2010).

Tests used:
GammaA3 = experiment: Whole genome expression analysis (Affymetrix microarray); type: cell-based, mouse; conditions: IC50 concentration, 96 h
Method: (§1) The cells were harvested and RNA was isolated using RNeasy Mini Kit (Qiagen, Hilden, Germany) according to the instructions of the manufacturer. The isolated RNA (250 ng) was processed further using standard protocols as described recently with the exception of the 3′ IVT Express Kit (Affymetrix, High Wycombe, UK) that was utilized according to instructions. Quality control of cRNA was done with the Agilent 2100 Bioanalyzer (Agilent Tech according to manufacturer's protocols. Following fragmentation, cRNA of each sample was hybridized to Affymetrix GeneChip® Mouse Genome 430 2.0 or Human Genome U133 Plus 2.0 and scanned with an Affymetrix 3000 7G scanner.
(§2) The resultant data was normalized by Probe Logarithmic Intensity Error Estimation (PLIER) algorithm. Statistical analysis was carried out with the ArrayTrack software (National Center for Toxicological Research/FDA, Jefferson, AR, USA) using SAM algorithm.

A2C12 = experiment: as above; type: cell-based, mouse; conditions: IC50 concentration, 96 h
Method: as §1, §2

c-Src = molecular target: T1, c-Src (Homo sapiens, UniProt P12931); experiment: Src filter-binding kinase assay (Src Assay Kit); type: biochemical
T1 construct: His tag; purchased Upstate (Lake Placid, NY, USA)
Procedure, shortened: (§3)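 Radiometric filter read-out with recombinant His-tagged human enzymes. Src used 0.125 pmol enzyme and 0.160 pmol [γ-32P]ATP with kit peptide; Abl used Abtide, […], 0.012 µM ATP, pH 7.5 Tris, 30 °C for 10 min. Ki derived from ID50 via ATP-competitive equation accounting for enzyme concentration.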

BetaD5 = experiment: Caspase-Glo 3/7 activity assay; type: cell-based, mouse; conditions: IC50 concentration, 24 h, vs vehicle
Method: According to instructions, Caspase-Glo® 3/7 assay (Promega GmbH, Mannheim, Germany) was used for monitoring caspase activity. Briefly, the same volume Caspase-Glo reagent as culture medium was added and incubated 1 h at room temperature. Luminescence was read with a Victor3 Wallac 1420 Multilabel counter (PerkinElmer, Rodgau, Germany). Background absorbance (medium only) was subtracted and the data given as percent of vehicle controls.

HepG2 = experiment: Whole genome expression analysis (Affymetrix microarray); type: cell-based, human; conditions: IC50 concentration, 96 h
Method: as §1, §2

CaCo2 = experiment: as above; type: cell-based, human; conditions: IC50 concentration, 96 h
Method: as §1, §2

A549 = experiment: as above; type: cell-based, human; conditions: IC50 concentration, 96 h
Method: as §1, §2

c-Abl = molecular target: T2, c-Abl (Homo sapiens, UniProt P00519); experiment: Abl filter-binding kinase assay (Abtide, [γ-32P]ATP); type: biochemical; conditions: isolated Abl; calculated from ID50, ATP-competitive; E0 0.005, S0 0.012 µM
T2 construct: His tag; purchased Upstate (Lake Placid, NY, USA)
Procedure, shortened: as §3

T1 sequence (P12931 whole entry): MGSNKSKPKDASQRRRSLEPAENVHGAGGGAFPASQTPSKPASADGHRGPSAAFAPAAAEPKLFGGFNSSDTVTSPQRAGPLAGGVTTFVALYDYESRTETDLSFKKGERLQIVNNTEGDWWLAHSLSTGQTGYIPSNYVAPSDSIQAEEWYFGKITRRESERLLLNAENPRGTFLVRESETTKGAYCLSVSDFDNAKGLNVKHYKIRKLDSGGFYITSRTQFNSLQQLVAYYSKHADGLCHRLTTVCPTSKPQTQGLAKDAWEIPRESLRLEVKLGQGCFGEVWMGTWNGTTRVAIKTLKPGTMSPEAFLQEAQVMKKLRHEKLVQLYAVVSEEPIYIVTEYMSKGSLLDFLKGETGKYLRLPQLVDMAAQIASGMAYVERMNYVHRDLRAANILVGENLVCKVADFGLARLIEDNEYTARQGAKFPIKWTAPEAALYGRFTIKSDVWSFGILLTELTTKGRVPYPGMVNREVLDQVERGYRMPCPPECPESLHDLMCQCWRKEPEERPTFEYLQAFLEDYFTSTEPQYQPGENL
T2 sequence (P00519 whole entry): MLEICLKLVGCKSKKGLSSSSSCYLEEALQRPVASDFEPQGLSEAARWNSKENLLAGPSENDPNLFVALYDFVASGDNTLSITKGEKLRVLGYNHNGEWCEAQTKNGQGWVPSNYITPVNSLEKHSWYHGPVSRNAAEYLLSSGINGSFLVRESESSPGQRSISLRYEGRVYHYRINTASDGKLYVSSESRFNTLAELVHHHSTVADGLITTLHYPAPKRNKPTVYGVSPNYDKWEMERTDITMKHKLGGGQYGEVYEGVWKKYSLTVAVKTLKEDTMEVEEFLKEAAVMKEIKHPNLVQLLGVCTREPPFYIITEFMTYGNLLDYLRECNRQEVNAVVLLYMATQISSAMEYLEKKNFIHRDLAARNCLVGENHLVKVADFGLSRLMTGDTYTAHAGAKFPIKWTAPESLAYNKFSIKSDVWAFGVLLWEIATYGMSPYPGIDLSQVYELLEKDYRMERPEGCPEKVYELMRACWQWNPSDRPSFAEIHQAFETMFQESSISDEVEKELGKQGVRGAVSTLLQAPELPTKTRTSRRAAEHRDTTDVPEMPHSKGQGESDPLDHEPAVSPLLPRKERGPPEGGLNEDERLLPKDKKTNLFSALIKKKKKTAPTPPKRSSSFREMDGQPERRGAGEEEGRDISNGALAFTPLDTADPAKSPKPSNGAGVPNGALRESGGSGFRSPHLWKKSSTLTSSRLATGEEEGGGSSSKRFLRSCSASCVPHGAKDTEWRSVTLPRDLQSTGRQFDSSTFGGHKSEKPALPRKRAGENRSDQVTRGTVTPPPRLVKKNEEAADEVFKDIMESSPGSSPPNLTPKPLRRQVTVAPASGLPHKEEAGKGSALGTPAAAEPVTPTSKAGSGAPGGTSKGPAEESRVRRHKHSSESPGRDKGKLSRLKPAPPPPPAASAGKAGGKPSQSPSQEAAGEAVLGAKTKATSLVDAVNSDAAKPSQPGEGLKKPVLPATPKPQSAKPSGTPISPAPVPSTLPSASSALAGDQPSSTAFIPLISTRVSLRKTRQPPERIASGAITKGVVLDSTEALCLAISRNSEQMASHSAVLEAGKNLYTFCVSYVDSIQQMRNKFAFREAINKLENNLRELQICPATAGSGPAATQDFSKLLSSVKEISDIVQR

`Clc1cccc(Nc2nc(SC3CCCC3)nc3c2cnn3CC(Cl)c2ccccc2)c1` (stereo not drawn) [Si135] was tested, and the “Significantly differentially regulated genes, downregulated (number)” value (GammaA3; SAM FDR<0.01, FC>2) was 66, the “Significantly differentially regulated genes, upregulated (number)” value (GammaA3; SAM FDR<0.01, FC>2) was 79 and the Actg2 gene expression (GammaA3; vs control) was -1.23 log2 of fold change. The Ccl5 gene expression (GammaA3; vs control) was 3.04 log2 of fold change, the Cenpa gene expression (GammaA3; vs control) was 1.11 log2 of fold change and the Col1a1 gene expression (GammaA3; vs control) was -1.15 log2 of fold change. For the same molecule, the Has2 gene expression (GammaA3; vs control) was -1.09 log2 of fold change, the Itga6 gene expression (GammaA3; vs control) was 1.72 log2 of fold change and the Mapk8ip1 gene expression (GammaA3; vs control) was -1.05 log2 of fold change. For the same molecule, the Mmp3 gene expression (GammaA3; vs control) was 1.52 log2 of fold change, the Mmp13 gene expression (GammaA3; vs control) was 1.29 log2 of fold change and the Ngef gene expression (GammaA3; vs control) was 1.56 log2 of fold change. For the same molecule, the Tbrg4 gene expression (GammaA3; vs control) was -1.09 log2 of fold change, the Ywhaz gene expression (GammaA3; vs control) was -1.04 log2 of fold change and the Zyx gene expression (GammaA3; vs control) was -1.34 log2 of fold change. The “Significantly differentially regulated genes, downregulated (number)” value (A2C12; SAM FDR<0.01, FC>2) was 33, the “Significantly differentially regulated genes, upregulated (number)” value (A2C12; SAM FDR<0.01, FC>2) was 118 and the Actg2 gene expression (A2C12; vs control) was -4.51 log2 of fold change. The Ctgf gene expression (A2C12; vs control) was 1.05 log2 of fold change, the Dusp3 gene expression (A2C12; vs control) was 1.06 log2 of fold change and the Gadd45a gene expression (A2C12; vs control) was 1.81 log2 of fold change. The Il6 gene expression (A2C12; vs control) was -4.69 log2 of fold change, the Mmp13 gene expression (A2C12; vs control) was 2.95 log2 of fold change and the Mtm1 gene expression (A2C12; vs control) was 1.00 log2 of fold change. The Ptn gene expression (A2C12; vs control) was -5.35 log2 of fold change, the Ptprg gene expression (A2C12; vs control) was 1.05 log2 of fold change and the “Inhibition of c-Src kinase activity” value (c-Src) was “no inhibition”. For the same molecule, the “Increase in caspase-3/7 activity” value (BetaD5) was 10 fold, the “Significantly differentially regulated genes, downregulated (number)” value (HepG2; SAM FDR<0.01, FC>2) was 0 and the “Significantly differentially regulated genes, upregulated (number)” value (HepG2; SAM FDR<0.01, FC>2) was 87. For the same molecule, the Dusp1 gene expression (HepG2; vs control) was 1.56 log2 of fold change, the Hnrnpr gene expression (HepG2; vs control) was 1.08 log2 of fold change and the Jun gene expression (HepG2; vs control) was 1.34 log2 of fold change. For the same molecule, the Pik3ca gene expression (HepG2; vs control) was 2.01 log2 of fold change, the “Ptk2 (FAK) gene expression” value (HepG2; vs control) was 1.20 log2 of fold change and the “Significantly differentially regulated genes, downregulated (number)” value (CaCo2; SAM FDR<0.01, FC>2) was 55. The “Significantly differentially regulated genes, upregulated (number)” value (CaCo2; SAM FDR<0.01, FC>2) was 193, the Birc5 gene expression (CaCo2; vs control) was -4.36 log2 of fold change and the Cav1 gene expression (CaCo2; vs control) was 1.30 log2 of fold change. For the same molecule, the Cdkn1a gene expression (CaCo2; vs control) was 1.00 log2 of fold change, the Ceacam1 gene expression (CaCo2; vs control) was 1.47 log2 of fold change and the Ceacam6 gene expression (CaCo2; vs control) was 1.25 log2 of fold change. The Cxcl2 gene expression (CaCo2; vs control) was 1.16 log2 of fold change, the Dusp1 gene expression (CaCo2; vs control) was 1.05 log2 of fold change and the Flnc gene expression (CaCo2; vs control) was 1.43 log2 of fold change. The Itga2 gene expression (CaCo2; vs control) was 1.02 log2 of fold change, the Jun gene expression (CaCo2; vs control) was 1.51 log2 of fold change and the Lamc2 gene expression (CaCo2; vs control) was 1.27 log2 of fold change. For the same molecule, the Mtss1 gene expression (CaCo2; vs control) was -4.64 log2 of fold change, the Ptn gene expression (CaCo2; vs control) was -4.50 log2 of fold change and the Tgfb1i1 gene expression (CaCo2; vs control) was 1.67 log2 of fold change. For the same molecule, the “Thbs (thrombospondin 1) gene expression” value (CaCo2; vs control) was -4.36 log2 of fold change, the Tnc gene expression (CaCo2; vs control) was -6.40 log2 of fold change and the Tuba1a gene expression (CaCo2; vs control) was 2.27 log2 of fold change. The “Significantly differentially regulated genes, downregulated (number)” value (A549; SAM FDR<0.01, FC>2) was 17, the “Significantly differentially regulated genes, upregulated (number)” value (A549; SAM FDR<0.01, FC>2) was 61 and the Cdcp1 gene expression (A549; vs control) was 1.23 log2 of fold change. The Ceacam6 gene expression (A549; vs control) was 1.63 log2 of fold change, the Il8 gene expression (A549; vs control) was 1.20 log2 of fold change and the Lamb3 gene expression (A549; vs control) was 1.08 log2 of fold change. For the same molecule, the Ptgs2 gene expression (A549; vs control) was 1.05 log2 of fold change, the Vcan gene expression (A549; vs control) was -4.42 log2 of fold change and the Ki (c-Abl) was 0.12 µM.
